According to ChEMBL document CHEMBL5038592, “Discovery of MK-8153, a Potent and Selective ROMK Inhibitor and Novel Diuretic/Natriuretic” (J Med Chem, 2021):

Columns and labels:
[1] = species on record: Homo sapiens; test: Selectivity index, ratio of IC50 for human ERG to IC50 for human ROMK
[2] = biological target: Voltage-gated inwardly rectifying potassium channel KCNH2 (Homo sapiens, UniProt Q12809); test: Inhibition of human ERG expressed in HEK-293 cells by voltage clamp electrophysiology assay
[3] = Apparent permeability in pig LLC-PK1 cells
[4] = biological target: T1, ATP-sensitive inward rectifier potassium channel 1 (Homo sapiens, UniProt P48048); test: Inhibition of human ROMK expressed in CHO cells by whole cell voltage clamp electrophysiology assay; assay type: cell-based
T1 sequence (P48048 whole entry): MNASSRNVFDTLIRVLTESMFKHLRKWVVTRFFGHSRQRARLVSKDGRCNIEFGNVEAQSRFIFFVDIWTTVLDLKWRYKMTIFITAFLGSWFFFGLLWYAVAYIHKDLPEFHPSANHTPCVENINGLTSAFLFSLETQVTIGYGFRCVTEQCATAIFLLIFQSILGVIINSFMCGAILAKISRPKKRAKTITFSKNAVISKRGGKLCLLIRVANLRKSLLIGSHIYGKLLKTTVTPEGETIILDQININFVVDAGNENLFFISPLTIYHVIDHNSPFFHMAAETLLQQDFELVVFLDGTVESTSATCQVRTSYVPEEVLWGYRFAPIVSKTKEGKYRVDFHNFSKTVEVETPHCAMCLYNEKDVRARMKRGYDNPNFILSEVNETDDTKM

Chain of Voltage-gated inwardly rectifying potassium channel KCNH2 (Q12809 whole entry): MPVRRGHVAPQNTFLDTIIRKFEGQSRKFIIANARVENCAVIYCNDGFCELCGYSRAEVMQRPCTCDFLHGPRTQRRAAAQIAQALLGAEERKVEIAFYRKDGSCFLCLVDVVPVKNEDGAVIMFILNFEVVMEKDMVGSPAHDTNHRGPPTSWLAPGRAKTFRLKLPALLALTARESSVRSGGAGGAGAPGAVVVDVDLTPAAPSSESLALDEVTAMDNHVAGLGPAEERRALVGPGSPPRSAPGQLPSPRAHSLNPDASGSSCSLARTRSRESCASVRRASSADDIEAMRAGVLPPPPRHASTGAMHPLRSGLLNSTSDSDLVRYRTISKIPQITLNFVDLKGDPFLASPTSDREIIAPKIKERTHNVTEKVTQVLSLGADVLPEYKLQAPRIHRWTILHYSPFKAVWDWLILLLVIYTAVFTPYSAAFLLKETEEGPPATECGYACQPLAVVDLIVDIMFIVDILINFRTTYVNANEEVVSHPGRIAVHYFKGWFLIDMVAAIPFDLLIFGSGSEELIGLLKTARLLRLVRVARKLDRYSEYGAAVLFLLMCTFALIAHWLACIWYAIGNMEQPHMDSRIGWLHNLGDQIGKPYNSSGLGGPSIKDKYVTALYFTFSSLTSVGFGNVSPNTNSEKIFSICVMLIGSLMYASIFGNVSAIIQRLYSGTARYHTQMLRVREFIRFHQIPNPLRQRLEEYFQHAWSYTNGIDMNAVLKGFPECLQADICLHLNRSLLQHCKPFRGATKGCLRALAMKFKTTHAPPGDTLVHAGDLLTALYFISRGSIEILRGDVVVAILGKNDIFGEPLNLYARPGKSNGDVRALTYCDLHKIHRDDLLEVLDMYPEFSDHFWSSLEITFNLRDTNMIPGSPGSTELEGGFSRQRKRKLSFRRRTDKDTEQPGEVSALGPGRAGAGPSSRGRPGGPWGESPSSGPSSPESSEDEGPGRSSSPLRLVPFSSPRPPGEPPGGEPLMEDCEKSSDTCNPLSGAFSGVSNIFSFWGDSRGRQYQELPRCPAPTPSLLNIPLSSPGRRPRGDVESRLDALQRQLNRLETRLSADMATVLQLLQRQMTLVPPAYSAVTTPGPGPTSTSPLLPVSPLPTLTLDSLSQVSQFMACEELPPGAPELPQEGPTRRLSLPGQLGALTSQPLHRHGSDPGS

Compound	Ratio [1]	Papp [3] [×10⁻⁶ cm/s]	IC50 [4] [nM]	IC50 [2] [nM]
Cc1c([C@@H](O)CN2CCC3(CC2)CC(=O)N(C2=CC(=O)OC2)C3)ccc2c1COC2=O	2000	7.9	45	90000
Cc1c([C@@H](O)CN2CCC3(CC2)CCN(C2=CC(=O)OC2C)C3=O)ccc2c1COC2=O (some centres not stated)		19	24	19000
Cc1c([C@@H](O)CN2CCC3(CC2)CCN(C2=CC(=O)CC2)C3=O)ccc2c1COC2=O			11	
CC1=C(N2CCC3(CCN(C[C@H](O)c4ccc5c(c4C)COC5=O)CC3)C2=O)C(C)OC1=O (some centres not stated)		20	98	20000
CC1=C(N2CCC3(CCN(C[C@H](O)c4ccc5c(c4C)COC5=O)CC3)C2=O)CCC1=O		22	15	

Now from value to compound, other results behind:

Ratio [1]	Papp [3] [×10⁻⁶ cm/s]	IC50 [4] [nM]	Compound	IC50 [2] [nM]
	11		Cc1c([C@@H](O)CN2CCC3(CC2)CCN(C2=CC(=O)OC2)C3=O)ccc2c1COC2=O	
	20		Cc1c([C@@H](O)CN2CCN(C[C@H](O)c3ccc4c(c3C)COC4=O)CC2)ccc2c1COC2=O [MK-7145]	22000
3400	27	26	Cc1c([C@@H](O)CN2CCC3(CC2)CCN(C2=CC(=O)OC2)C3)ccc2c1COC2=O	90000
	23	18	CCC1=C(N2CCC3(CCN(C[C@H](O)c4ccc5c(c4C)COC5=O)CC3)C2=O)COC1=O	
	33	6	Cc1c([C@@H](O)CN2CCC3(CC2)CCN(C2=C(Cl)C(=O)OC2)C3=O)ccc2c1COC2=O	
	18	18	CC1=C(N2C(=O)C3(CCN(C[C@H](O)c4ccc5c(c4C)COC5=O)CC3)CC2C)COC1=O (some centres not stated)	18000
